The values below come from US20090143454A1, “Pyrazoline Derivatives and Their Use As Pesticides” (BAYER CROPSCIENCE AG, priority 2001, published 2009).

The structures appear in SMILES notation.

Common to all, as to format: in vivo
The test system of one assay is Periplaneta americana. Nature of the assay: Cockroach test. The following applies: 100 ppm; dipped 1 minute; after 7 days. The protocol:
(§1) 20 mg of active compound are dissolved in 1 ml of dimethyl sulphoxide. More dilute concentrations are prepared by dilution with distilled water.
4 test animals are dipped for 1 minute into the preparation of active compound to be tested. After transfer into a plastic beaker and storage for 7 days in an air-conditioned room the killing rate is determined. 100% means, that all cockroaches have been killed, 0% means, that none of the cockroaches have been killed.

The subject of assay [1] is caterpillars of the army worm (Spodoptera frugiperda). Nature of the assay: Spodoptera frugiperda test. The following applies: 168 h, cabbage leaves dipped, after 7 d, read-out: Kill rate in % after 7 d. How it is done: (§2) To produce a suitable preparation of active compound, 1 part by weight of active compound is mixed with the stated amounts of solvent and emulsifier, and the concentrate is diluted with emulsifier-containing water to the desired concentration.
Cabbage leaves (Brassica oleracea) are treated by being dipped into the preparation of active compound of the desired concentration and are populated with caterpillars of the army worm (Spodoptera frugiperda) while the leaves are still moist.
(§3) After the desired period of time, the kill in % is determined. 100% means that all caterpillars have been killed; 0% means that none of the caterpillars have been killed.

Assay [2] has as its system larvae of the mustard beetle (Phaedon cochleariae). Nature of the assay: Phaedon larvae test. To be noted: 168 h, cabbage leaves dipped, after 7 d, read-out: Kill rate in % after 7 d. How it is done:
To produce a suitable preparation of active compound, 1 part by weight of active compound is mixed with the stated amounts of solvent and emulsifier, and the concentrate is diluted with emulsifier-containing water to the desired concentration. Cabbage leaves (Brassica oleracea) are treated by being dipped into the preparation of active compound of the desired concentration and are populated with larvae of the mustard beetle (Phaedon cochleariae) while the leaves are still moist.

For assay [3], the system named is larvae of the army worm (Spodoptera frugiperda). The assay can be described thus: Test for persistency: Spodoptera frugiperda. The following applies: 20 ppm, cotton plants sprayed. The protocol:
as §2
Cotton plants (Gossypium hirsutum) are sprayed with a preparation of active compound of the desired concentration. After the stated number of days, larvae of the army worm (Spodoptera frugiperda) are, in infection chambers, placed on the treated leaves.
as §3

The test system of assay [4] is Heliothis virescens larvae. Nature of the assay: Test for persistency: Heliothis virescens. To be noted: 20 ppm, cotton plants sprayed. The protocol: as §2
Cotton plants (Gossypium hirsutum) are sprayed with a preparation of active compound of the desired concentration. After the stated number of days, Heliothis virescens larvae are, in infection chambers, placed on the treated leaves.
as §3

Another assay concerns Lucilia cuprina larvae. The assay can be described thus: Blowfly larvae test/development-inhibitory action. How it is done: as §1
About 20 Lucilia cuprina larvae are introduced into a test tube which contains about 1 cm^3 of horsemeat and 0.5 ml of the preparation of active compound to be tested. The activity of the preparation of active compound is determined after 24 and 48 hours. The test tubes are transferred into a beaker whose bottom is covered with sand. After a further 2 days, the test tubes are removed and the pupae are counted.
The activity of the preparation of active compound is assessed using the number of flies that have hatched after 1.5 times the development period of an untreated control. 100% means that none of the flies have hatched; 0% means that all of the flies have hatched normally.

For `N#Cc1cnn(C2CN(C(=O)Nc3ccc(OC(F)(F)F)cc3)N=C2c2ccc(Cl)cc2)c1` (stereo not drawn) [drawing 97], the “activity/kill rate in %” value with Periplaneta americana was determined as 25%.

Take `N#Cc1cnn(C2CN(C(=O)Nc3ccc(OC(F)(F)F)cc3)N=C2c2ccc(I)cc2)c1` (stereo not drawn) [drawing 68]: the pest or weed control at 500 ppm in assay [1] was 100%.

With `N#Cc1cnn(C2CN(C(=O)Nc3ccc(OC(F)(F)F)cc3)N=C2c2ccc(SC(F)(F)F)cc2)c1` (stereo not drawn) [drawing 70], the pest or weed control at 500 ppm in assay [1] turned out to be 100%.

In the case of `N#Cc1cnn(C2CN(C(=O)Nc3ccc(C(F)(F)F)cc3)N=C2c2ccc(Cl)cc2)c1` (stereo not drawn) [drawing 98], the “activity/kill rate in %” value with Periplaneta americana is on record as 50%.

Consider `N#Cc1cnn(C2CN(C(=O)Nc3ccc(SC(F)(F)F)cc3)N=C2c2ccc(Br)cc2)c1` (stereo not drawn) [drawing 66], for which, in assay [1], the pest or weed control at 500 ppm amounted to 100%.

For `N#Cc1cnn(C2CN(C(=O)Nc3ccc(OC(F)(F)F)cc3)N=C2c2ccc(Cl)cc2)c1` (stereo not drawn) [drawing 43], in assay [2], the pest or weed control at 500 ppm is 100%.

Regarding `N#Cc1cnn(C2CN(C(=O)Nc3ccc(OC(F)(F)F)cc3)N=C2c2ccc(I)cc2)c1` (stereo not drawn) [drawing 51], the pest or weed control at 500 ppm in assay [2] was determined as 100%.

With `N#Cc1cnn(C2CN(C(=O)Nc3ccc(Cl)cc3)N=C2c2ccc(Cl)cc2)c1` (stereo not drawn) [drawing 44], the pest or weed control at 500 ppm in assay [2] worked out at 100%.

As for `N#Cc1cnn(C2CN(C(=O)Nc3ccc(C(F)(F)F)cc3)N=C2c2ccc(Cl)cc2)c1` (stereo not drawn) [drawing 76], the “Kill rate in % 7 d after infection” value in assay [3] (infection after 5 d), in assay [3] (infection after 12 d) and in assay [3] (infection after 19 d) was “infection after: 5^d 12^d 19^d 100 100 100%” in each case.

For `N#Cc1cnn(C2CN(C(=O)Nc3ccc(SC(F)(F)F)cc3)N=C2c2ccc(Cl)cc2)c1` (stereo not drawn) [drawing 74], the figures for the “Kill rate in % 7 d after infection” value in assay [4] (infection after 5 d), in assay [4] (infection after 12 d) and in assay [4] (infection after 19 d) were 80%, 70% and 90%, respectively.

For `N#Cc1cnn(C2CN(C(=O)Nc3ccc(OC(F)(F)F)cc3)N=C2c2ccc(Br)cc2)c1` (stereo not drawn) [drawing 81], the “activity/kill rate in % after 48 h” value in the assay on Lucilia cuprina larvae (20 ppm) and in the assay on Lucilia cuprina larvae (100 ppm) was 100/100% throughout.

For `N#CCN(C(=O)N1CC(n2cc(C#N)cn2)C(c2ccc(Cl)cc2)=N1)c1ccc(OC(F)(F)F)cc1` (stereo not drawn) [drawing 46], the pest or weed control at 500 ppm in assay [2] came to 100%.

Consider `CCOC(=O)N(C(=O)N1CC(n2cc(C#N)cn2)C(c2ccc(Cl)cc2)=N1)c1ccc(OC(F)(F)F)cc1` (stereo not drawn) [drawing 89], for which, in the assay with Lucilia cuprina larvae (20 ppm), the “activity/kill rate in % after 14 d” value is given as 100%.

On to `CCOC(=O)N(C(=O)N1CC(n2cc(C#N)cn2)C(c2ccc(Cl)cc2)=N1)c1ccc(OC(F)(F)F)cc1` (stereo not drawn) [drawing 64], for which the pest or weed control at 500 ppm in assay [1] worked out at 100%.

With `N#Cc1cnn(C2CN(C(=O)Nc3ccc(OC(F)(F)F)cc3)N=C2c2ccc(Br)cc2)c1` (stereo not drawn) [drawing 65], the pest or weed control at 500 ppm in assay [1] was found to be 100%.

With `N#Cc1cnn(C2CN(C(=O)Nc3ccc(C(F)(F)F)cc3)N=C2c2ccc(Cl)cc2)c1` (stereo not drawn) [drawing 73], the “Kill rate in % 7 d after infection” value is reported as 100% in assay [4] (infection after 5 d), 100% in assay [4] (infection after 12 d) and 90% in assay [4] (infection after 19 d).

As to `N#Cc1cnn(C2CN(C(=O)Nc3ccc(SC(F)(F)F)cc3)N=C2c2ccc(I)cc2)c1` (stereo not drawn) [drawing 69], in assay [1], the pest or weed control at 500 ppm was 100%.

As for `N#Cc1cnn(C2CN(C(=O)Nc3ccc(OC(F)(F)F)cc3)N=C2c2ccc(I)cc2)c1` (stereo not drawn) [drawing 83], the “activity/kill rate in % after 48 h” value with Lucilia cuprina larvae (20 ppm) and in the assay on Lucilia cuprina larvae (100 ppm) was 100/100% each time.

Regarding `N#Cc1cnn(C2CN(C(=O)Nc3ccc(S(=O)(=O)C(F)(F)F)cc3)N=C2c2ccc(Cl)cc2)c1` (stereo not drawn) [drawing 52], the pest or weed control at 500 ppm in assay [2] stood at 100%.

Turning to `N#Cc1cnn(C2CN(C(=O)Nc3ccc(Cl)cc3)N=C2c2ccc(Cl)cc2)c1` (stereo not drawn) [drawing 87], the “activity/kill rate in % after 14 d” value in the assay on Lucilia cuprina larvae (20 ppm) and in the assay on Lucilia cuprina larvae (100 ppm) was 100/100% throughout.

`N#Cc1cnn(C2CN(C(=O)Nc3ccc(OC(F)(F)F)cc3)N=C2c2ccc(I)cc2)c1` (stereo not drawn) [drawing 102]: the “activity/kill rate in %” value in the assay with Periplaneta americana is given as 50%.

`N#Cc1cnn(C2CN(C(=O)Nc3ccc(OC(F)(F)F)cc3)N=C2c2ccc(Cl)cc2)c1` (stereo not drawn) [drawing 72]: the “Kill rate in % 7 d after infection” value is 100% in assay [4] (infection after 5 d), 90% in assay [4] (infection after 12 d) and 100% in assay [4] (infection after 19 d).

On to `N#Cc1cnn(C2CN(C(=O)Nc3ccc(OC(F)(F)F)cc3)N=C2c2ccc(Cl)cc2)c1` (stereo not drawn) [drawing 78], for which the “activity/kill rate in % after 48 h” value with Lucilia cuprina larvae (20 ppm) and with Lucilia cuprina larvae (100 ppm) was 100/100% throughout.

Take `N#Cc1cnn(C2CN(C(=O)Nc3ccc(SC(F)(F)F)cc3)N=C2c2ccc(Br)cc2)c1` (stereo not drawn) [drawing 50]: the pest or weed control at 500 ppm in assay [2] came to 100%.

Consider `CCOC(=O)N(C(=O)N1CC(n2cc(C#N)cn2)C(c2ccc(Cl)cc2)=N1)c1ccc(OC(F)(F)F)cc1` (stereo not drawn) [drawing 47], for which the pest or weed control at 500 ppm in assay [2] was 100%.

As to `COC(=O)N(C(=O)N1CC(n2cc(C#N)cn2)C(c2ccc(Cl)cc2)=N1)c1ccc(OC(F)(F)F)cc1` (stereo not drawn) [drawing 79], the “activity/kill rate in % after 48 h” value with Lucilia cuprina larvae (20 ppm) and in the assay with Lucilia cuprina larvae (100 ppm) was 100/100% in each case.

For the compound `N#Cc1cnn(C2CN(C(=O)Nc3ccc(OC(F)(F)F)cc3)N=C2c2ccc(Br)cc2)c1` (stereo not drawn) [drawing 49], the pest or weed control at 500 ppm in assay [2] came to 100%.

`N#Cc1cnn(C2CN(C(=O)Nc3ccc(OC(F)(F)F)cc3)N=C2c2ccc(Cl)cc2)c1` (stereo not drawn) [drawing 75]: the “Kill rate in % 7 d after infection” value in assay [3] (infection after 5 d), in assay [3] (infection after 12 d) and in assay [3] (infection after 19 d) was “infection after: 5^d 12^d 19^d 100 100 100%” in each case.

As to `N#Cc1cnn(C2CN(C(=O)Nc3ccc(SC(F)(F)F)cc3)N=C2c2ccc(SC(F)(F)F)cc2)c1` (stereo not drawn) [drawing 71], the pest or weed control at 500 ppm in assay [1] worked out at 100%.

As for `N#CCN(C(=O)N1CC(n2cc(C#N)cn2)C(c2ccc(Cl)cc2)=N1)c1ccc(OC(F)(F)F)cc1` (stereo not drawn) [drawing 63], in assay [1], the pest or weed control at 500 ppm amounted to 100%.

Consider `N#Cc1cnn(C2CN(C(=O)Nc3ccc(C(F)(F)F)cc3)N=C2c2ccc(Cl)cc2)c1` (stereo not drawn) [drawing 62], for which, in assay [1], the pest or weed control at 500 ppm was 100%.

With `N#Cc1cnn(C2CN(C(=O)Nc3ccc(S(=O)(=O)C(F)(F)F)cc3)N=C2c2ccc(Br)cc2)c1` (stereo not drawn) [drawing 67], the pest or weed control at 500 ppm in assay [1] stood at 100%.

As to `N#Cc1cnn(C2CN(C(=O)Nc3ccc(SC(F)(F)F)cc3)N=C2c2ccc(Cl)cc2)c1` (stereo not drawn) [drawing 77], the “Kill rate in % 7 d after infection” value in assay [3] (infection after 5 d) turned out to be 90%; in assay [3] (infection after 12 d), 100%; in assay [3] (infection after 19 d), 100%.

`N#Cc1cnn(C2CN(C(=O)Nc3ccc(S(=O)(=O)C(F)(F)F)cc3)N=C2c2ccc(Cl)cc2)c1` (stereo not drawn) [drawing 84]: the “activity/kill rate in % after 48 h” value in the assay with Lucilia cuprina larvae (20 ppm) and in the assay with Lucilia cuprina larvae (100 ppm) was 100/100% each time.

Regarding `N#Cc1cnn(C2CN(C(=O)Nc3ccc([S+]([O-])C(F)(F)F)cc3)N=C2c2ccc(Cl)cc2)c1` (stereo not drawn) [drawing 90], the “activity/kill rate in % after 14 d” value in the assay on Lucilia cuprina larvae (20 ppm) and in the assay on Lucilia cuprina larvae (100 ppm) was 100/100% each time.

Regarding `COC(=O)N(C(=O)N1CC(n2cc(C#N)cn2)C(c2ccc(Cl)cc2)=N1)c1ccc(OC(F)(F)F)cc1` (stereo not drawn) [drawing 45], the pest or weed control at 500 ppm in assay [2] was 100%.

Take `N#Cc1cnn(C2CN(C(=O)Nc3ccc(SC(F)(F)F)cc3)N=C2c2ccc(Cl)cc2)c1` (stereo not drawn) [drawing 88]: the “activity/kill rate in % after 14 d” value in the assay with Lucilia cuprina larvae (20 ppm) and with Lucilia cuprina larvae (100 ppm) was 100/100% each time.
